Measurements as given in patent US20250387359A1, “COMPOUNDS AND METHODS FOR THE TREATMENT OF PARASITIC INFECTIONS” (THE BOARD OF TRUSTEES OF THE UNIVERSITY OF ILLINOIS, priority 2019, published 2025).
Entries after “also recorded” stand apart in the source; their conditions may differ. Read-outs that look alike come from different tables or passages of the source. Each block holds one molecule with its values, some of them ahead of it.

Experiments:
[1] = Compound cytotoxicity assay (WST-1) in HCT-8 cells; assay type: cell-based, human; settings: human; HCT-8 cells, 24 h, WST-1
Protocol: Compound cytotoxicity assay. […] A colorimetric assay using the cell proliferation reagent WST-1 (Roche, USA) for the quantification of cell viability was performed. […] When the cells were confluent, the old medium was replaced with fresh medium with or without varying concentrations of chemical compound. After 24 h of culture, 10 μl of the cell proliferation reagent WST-1, (for quantification of cell viability) was added to each well, mixed and the plates incubated for 1 h at 37 C with 5% CO2 in the dark. […] Molecular Devices, USA).

[2] = Tolerability in mice; assay type: in vivo; settings: daily oral gavage for 7 days, mice
Protocol: In vivo testing of the anti-Cryptosporidium effect of CpLDH inhibitors. Gamma interferon knockout mice (B6.129S7-Ifng), 8 weeks of age, were purchased from Charles River, USA. The care and use of the mice was done following the guidelines of protocol number 17024 approved by the University of Illinois at Urbana-Champaign, USA. The animals were allowed to acclimatize for 1 week before experiments commenced. Stock solutions of recombinant CpLDH inhibitors reconstituted in DMSO were diluted in sterile distilled water to reduce the final amount of DMSO in the solution to less than 1% (v/v) before administering them to mice. Prior to testing the anti-Cryptosporidium effect of the inhibitors in mice, the tolerability of each inhibitor was tested by oral gavage using varying dosages (100-2000 mg/kg body weight) of each inhibitor in groups of mice (three mice for each dose) daily for 7 days. Mice were observed daily for signs of toxicity including changes from normal physical activity, respiration, body temperature, feeding, posture, fur condition or occurrence of death. […] An equivalent volume of PBS containing a cocktail of penicillin (100 units/ml), streptomycin (100 μg/ml), chloramphenicol (34 μg/ml) and amphotericin (0.25 μg/ml) was added to the fecal samples and stored at 4° C. until use for quantification of C. parvum genomic DNA load. […]

[3] = tested on: C. parvum; assay: Real-time PCR quantification of C. parvum DNA in fecal samples of infected mice; assay type: in vivo, Cryptosporidium parvum; settings: for reduction of shedding of C. parvum in mice feces vs untreated infected mice: day 7 post-infection; for fecal C. parvum DNA load: Table 6, infected mice, multiplier printed in next cell
Protocol: In vivo testing of the anti-Cryptosporidium effect of CpLDH inhibitors. Gamma interferon knockout mice (B6.129S7-Ifng), 8 weeks of age, were purchased from Charles River, USA. The care and use of the mice was done following the guidelines of protocol number 17024 approved by the University of Illinois at Urbana-Champaign, USA. The animals were allowed to acclimatize for 1 week before experiments commenced. Stock solutions of recombinant CpLDH inhibitors reconstituted in DMSO were diluted in sterile distilled water to reduce the final amount of DMSO in the solution to less than 1% (v/v) before administering them to mice. Prior to testing the anti-Cryptosporidium effect of the inhibitors in mice, the tolerability of each inhibitor was tested by oral gavage using varying dosages (100-2000 mg/kg body weight) of each inhibitor in groups of mice (three mice for each dose) daily for 7 days. Mice were observed daily for signs of toxicity including changes from normal physical activity, respiration, body temperature, feeding, posture, fur condition or occurrence of death. […] The subsequent dosages of NSC10447 used in the mice infection assays were 250, 500 and 1000 mg/kg mouse body weight, while the NSC158011 dosages used were 100, 200 and 400 mg/kg mouse body weight. Mice were allocated to groups as follows: “Infected plus inhibitor treatment”; “Infected minus inhibitor treatment”; “Uninfected minus inhibitor treatment” and “Infected plus paromomycin treatment”. Each group contained at least three mice. Each mouse in the infection groups received 5,000 C. parvum oocysts (resuspended in 50 μl of PBS) by oral gavage. Mice were housed individually in cages lined with sterile gauze as bedding. One day post-infection (PI), daily oral gavage administration of recombinant CpLDH inhibitor or paromomycin commenced and continued for a total of 7 days. Untreated mice received an equivalent volume of sterile distilled water (containing DMSO equivalent to the amount administered in the inhibitor-treated group) by oral gavage. Fecal pellets were collected daily from each cage and placed in individual sterile 15 ml conical tubes. An equivalent volume of PBS containing a cocktail of penicillin (100 units/ml), streptomycin (100 μg/ml), chloramphenicol (34 μg/ml) and amphotericin (0.25 μg/ml) was added to the fecal samples and stored at 4° C. until use for quantification of C. parvum genomic DNA load. Three independent replicate infection assays were performed. At 9 days PI, mice were euthanized and 5 cm of the distal small intestine resected 2 cm anterior to the cecum and immediately submerged in 4% buffered formalin. The intestinal tissues were submitted for histopathology to the Veterinary Diagnostic Laboratory at the University of Illinois at Urbana-Champaign. Briefly, intestinal tissues preserved in 4% buffered formalin were washed in 70% ethanol and embedded in 1% agar and then processed for paraffin embedding. For hematoxylin and eosin staining, five μm transverse and cross sections were cut and processed and stained following standard procedures of the Veterinary Diagnostic Laboratory. Sections were imaged using a Zeiss microscope and images captured with a color camera.
Quantification of C. parvum shed in mice feces. Genomic DNA was extracted from individual fecal samples collected from mice at different days as described above. For each sample, 220 mg of homogenized feces were used to extract genomic DNA using the QIAamp PowerFecal DNA Kit (Qiagen, USA) following the manufacturer's instructions. Quantification of the amount of C. parvum 18s rRNA gene (GenBank accession number AF164102) was performed essentially as described previously (Int. J. Parasitol. 2018; 48(8), 649-656). Briefly, primers were used to generate a 240 bp amplicon from C. parvum genomic DNA by conventional PCR. […]

[4] = tested on: Cryptosporidium parvum; assay: In vitro anti-Cryptosporidium effect in HCT-8 cells (immunofluorescence assay); assay type: cell-based; settings: HCT-8 cells; for IC50: Cryptosporidium parvum
Protocol: In vitro testing of the anti-Cryptosporidium effect of CpLDH inhibitors. HCT-8 cells were cultured in supplemented RPMI-1640 medium in 96-well plates. When the cells were confluent, old medium was replaced with fresh medium. To one set of wells, varying concentrations of recombinant CpLDH inhibitors (reconstituted in DMSO and diluted in RPMI medium) were added, while another set was left without inhibitors. Paromomycin was used as a positive control drug reconstituted in distilled sterile water. Then, 4×10^4 freshly excysted sporozoites were added to each well and incubated at 37° C. with 5% CO2. After 2 h incubation, varying concentrations of CpLDH inhibitors were added to the set of infected cells that were not treated initially. Control infected cells without inhibitors, but with added DMSO volumes equivalent to those used in the wells with inhibitors, were included. The cells were maintained in culture for a total of either 48 h or 72 h and processed for immunofluorescence assay as previously described (Int. J. Parasitol. 2017; 47(13), 867-874). Briefly, medium was decanted, and the cells fixed with methanol-acetic acid (9:1) for 2 minutes at room temperature. The cells were rehydrated and permeabilized by two successive washes with buffer (0.1% Triton X-100, 0.35 M NaCl, 0.13 M Tris-base, pH 7.6) and blocked with 5% normal goat serum, followed by staining with antibody to C. parvum (SporoGlo; Waterborn, Inc.) overnight at 4° C. The stained cells were washed twice with PBS, followed by water, and then imaged with an inverted fluorescence microscope. Fluorescence quantification was done using ImageJ version 1.37v software (NIH). Assays were performed in triplicate and repeated at least thrice.

[5] = biological target: T1, Plasmodium falciparum phosphoethanolamine methyltransferase enzyme (Plasmodium falciparum, UniProt Q8IDQ9); settings: previously shown; cited from earlier work
T1 sequence (Q8IDQ9 1-266): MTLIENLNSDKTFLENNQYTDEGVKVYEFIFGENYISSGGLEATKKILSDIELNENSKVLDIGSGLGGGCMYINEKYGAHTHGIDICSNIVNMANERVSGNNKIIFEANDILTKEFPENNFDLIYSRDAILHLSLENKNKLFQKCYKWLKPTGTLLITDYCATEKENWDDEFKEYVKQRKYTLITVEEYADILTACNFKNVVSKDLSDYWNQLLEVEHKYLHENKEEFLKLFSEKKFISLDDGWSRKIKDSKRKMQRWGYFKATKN

[6] = tested on: Plasmodium falciparum; settings: previously shown; cited from earlier work
[7] = tested on: C. parvum; assay: Histopathology of distal small intestine of C. parvum infected mice; assay type: in vivo, Cryptosporidium parvum; settings: lower small intestine, H&E, NSC158011 400 mg/kg, NSC10447 250, 500 or 1000 mg/kg, paromomycin 100 mg/kg
Protocol: In vivo testing of the anti-Cryptosporidium effect of CpLDH inhibitors. Gamma interferon knockout mice (B6.129S7-Ifng), 8 weeks of age, were purchased from Charles River, USA. The care and use of the mice was done following the guidelines of protocol number 17024 approved by the University of Illinois at Urbana-Champaign, USA. The animals were allowed to acclimatize for 1 week before experiments commenced. Stock solutions of recombinant CpLDH inhibitors reconstituted in DMSO were diluted in sterile distilled water to reduce the final amount of DMSO in the solution to less than 1% (v/v) before administering them to mice. Prior to testing the anti-Cryptosporidium effect of the inhibitors in mice, the tolerability of each inhibitor was tested by oral gavage using varying dosages (100-2000 mg/kg body weight) of each inhibitor in groups of mice (three mice for each dose) daily for 7 days. Mice were observed daily for signs of toxicity including changes from normal physical activity, respiration, body temperature, feeding, posture, fur condition or occurrence of death. […] The subsequent dosages of NSC10447 used in the mice infection assays were 250, 500 and 1000 mg/kg mouse body weight, while the NSC158011 dosages used were 100, 200 and 400 mg/kg mouse body weight. Mice were allocated to groups as follows: “Infected plus inhibitor treatment”; “Infected minus inhibitor treatment”; “Uninfected minus inhibitor treatment” and “Infected plus paromomycin treatment”. Each group contained at least three mice. Each mouse in the infection groups received 5,000 C. parvum oocysts (resuspended in 50 μl of PBS) by oral gavage. Mice were housed individually in cages lined with sterile gauze as bedding. […] An equivalent volume of PBS containing a cocktail of penicillin (100 units/ml), streptomycin (100 μg/ml), chloramphenicol (34 μg/ml) and amphotericin (0.25 μg/ml) was added to the fecal samples and stored at 4° C. until use for quantification of C. parvum genomic DNA load. […]

[8] = biological target: recombinant CpLDH protein (Cryptosporidium parvum, UniProt Q9GT92, F198L/K295E/R251K); settings: previous studies; cited from earlier work
Chain of recombinant CpLDH protein (Q9GT92 whole entry F198L/K295E/R251K): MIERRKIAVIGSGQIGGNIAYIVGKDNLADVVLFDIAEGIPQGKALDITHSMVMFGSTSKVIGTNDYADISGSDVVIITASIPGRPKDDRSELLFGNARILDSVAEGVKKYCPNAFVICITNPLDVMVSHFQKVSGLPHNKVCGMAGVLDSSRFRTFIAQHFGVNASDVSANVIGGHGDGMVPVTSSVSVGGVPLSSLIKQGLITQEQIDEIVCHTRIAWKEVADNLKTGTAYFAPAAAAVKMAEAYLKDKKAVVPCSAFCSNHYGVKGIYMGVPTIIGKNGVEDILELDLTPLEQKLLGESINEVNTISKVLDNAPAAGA

[9] = tested on: Cryptosporidium parvum; settings: previously reported by others; read-out: IC50, inhibition of C. parvum growth in HCT-8 cells; cited from earlier work

SMILES: S=C(CSc1ccccc1)Nc1cccc2ccccc12 [NSC158011]
IC50 at 24 h [1]: 149 µM
highest tolerable dose (no toxicity signs) [2]: 400 mg/kg
efficacy lower than paromomycin ([3]; NSC158011 200 mg/kg, last three days of treatment): about 10 fold
shedding of C. parvum oocysts in mice feces ([3]; NSC158011 400 mg/kg): significantly (P<. 0.05) reduced
reduction of shedding of C. parvum in mice feces vs untreated infected mice ([3]; NSC158011 400 mg/kg): about 3000 fold
effect on parasite growth at 40 μM ([4]; 48 h post-infection, 40 μM): blocking parasite growth almost completely
IC50 ([4]; 48 h, compound added at the time of infection, read-out: IC50, inhibition of C. parvum growth at 48 h p.i.): 14.9 µM
IC50 ([4]; 72 h, compound added at the time of infection, read-out: IC50, inhibition of C. parvum growth at 72 h p.i.): 15.6 µM
IC50 ([4]; compound added 2 h post-infection, read-out: IC50, inhibition of C. parvum growth at 48 h p.i. (2 h)): 15.8 µM
IC50 ([4]; compound added 2 h post-infection, read-out: IC50, inhibition of C. parvum growth at 72 h p.i. (2 h)): 16.5 µM
inhibition of catalytic activity of P. falciparum phosphoethanolamine methyltransferase [5]: inhibit the catalytic activity
inhibition of in vitro intracellular growth of P. falciparum [6]: inhibit in vitro intracellular growth of the parasite
histopathology of intestinal epithelium and villi [7]: maintained intact intestinal mucosa and villi; also recorded: intact intestinal epithelium with prominent villi

SMILES: CCCc1c(O)c(O)c(C(=O)O)c2cc(Cc3ccccc3)c(C)cc12 [FX11]
inhibition of the enzymatic activity of CpLDH [8]: able to inhibit the enzymatic activity of CpLDH

IC50 ([4]; 48 h post-infection, positive control, read-out: IC50, inhibition of C. parvum growth): 450 µM
IC50 ([4]; 72 h post-infection, positive control, read-out: IC50, inhibition of C. parvum growth): 400 µM
SMILES: NC[C@@H]1O[C@H](O[C@H]2[C@@H](O)[C@H](O[C@@H]3[C@@H](O)[C@H](N)C[C@H](N)[C@H]3O[C@H]3O[C@H](CO)[C@@H](O)[C@H](O)[C@H]3N)O[C@@H]2CO)[C@H](N)[C@@H](O)[C@@H]1O [paromomycin, reference compound]
fecal C. parvum DNA load ([3]; paromomycin 100 mg/kg, DPI 1): 3.1 ± 0.2 ×10^−10 ng/μL
fecal C. parvum DNA load ([3]; paromomycin 100 mg/kg, DPI 2): 6.6 ± 0.5 ×10^−9 ng/μL
fecal C. parvum DNA load ([3]; paromomycin 100 mg/kg, DPI 3): 5.2 ± 0.3 ×10^−9 ng/μL
fecal C. parvum DNA load ([3]; paromomycin 100 mg/kg, DPI 4): 4.7 ± 0.2 ×10^−8 ng/μL
fecal C. parvum DNA load ([3]; paromomycin 100 mg/kg, DPI 5): 5.0 ± 0.6 ×10^−7 ng/μL
fecal C. parvum DNA load ([3]; paromomycin 100 mg/kg, DPI 6): 4.8 ± 0.1 ×10^−6 ng/μL
fecal C. parvum DNA load ([3]; paromomycin 100 mg/kg, DPI 7): 5.1 ± 0.8 ×10^−6 ng/μL
fecal C. parvum DNA load ([3]; paromomycin 100 mg/kg, DPI 8): 5.4 ± 0.1 ×10^−6 ng/μL
reduction of shedding of C. parvum in mice feces vs untreated infected mice ([3]; paromomycin 100 mg/kg): about 3000 fold
IC50 [9]: 711 µM
histopathology of intestinal epithelium and villi [7]: intact intestinal epithelium with prominent villi
